Legend:
[1] = test system: TRZAWR (Wheat, Winter, cv Riband); assay: Preemergence herbicidal evaluation; format: in vivo, Triticum aestivum; conditions: rated 4-5 weeks after treatment, rating scale 0-9
In short: (§1)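 Scores (0–9) reflect visual comparison with control plants for stand, vigor, malformation, size and chlorosis. Compound was applied to the soil after sowing, before emergence, as an aqueous acetone spray (about 0.0156–0.500 kg/ha), and cups were kept in a greenhouse for 4–5 weeks.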

[2] = test system: ECHORC (Watergrass (Calif.)); assay: Preemergence weed control under flooded paddy conditions; format: in vivo, Echinochloa oryzoides; conditions: rated 3-4 weeks after treatment
In short: (§2)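 Silt loam, seeds in top 0.5 cm; flood held 1.5-3 cm; test cpd as acetone/water 50/50 into flood water, ~0.0313-0.500 kg/ha a.i.; greenhouse 3-4 wk; visual 0-9 score vs control.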

ABUTH (Velvetleaf) = assay: Preemergence herbicidal evaluation; format: in vivo, Abutilon theophrasti; conditions: rated 4-5 weeks after treatment, rating scale 0-9
In short: as §1

CYPIR (Rice Flatsedge) = assay: Preemergence weed control under flooded paddy conditions; format: in vivo, Cyperus iria; conditions: rated 3-4 weeks after treatment
In short: as §2

[3] = test system: SAGPY (Arrowhead (Pygmaea)); assay: as above; format: in vivo, Sagittaria pygmaea; conditions: rated 3-4 weeks after treatment
In short: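 Flooded-pot preemergence screen with silt loam and seeds in the upper 0.5 cm. Dose about 0.0313 to 0.500 kg/ha, delivered into flood water; visual 0-9 score after 3 to 4 weeks.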

Cn1c(C(F)(F)F)cc(=O)n(-c2cc(N=C3SCC(=O)N3Cc3ccccn3)c(Cl)cc2F)c1=O [Compound 131]
Preemergence herbicidal rating TRZAWR ([1]; rate 0.0313 kg/ha): 0.0
Preemergence herbicidal rating TRZAWR ([1]; rate 0.0625 kg/ha): 0.0
Preemergence herbicidal rating TRZAWR ([1]; rate 0.1250 kg/ha): 0.0
Preemergence herbicidal rating TRZAWR ([1]; rate 0.2500 kg/ha): 0.0
herbicidal effect rating, ECHORC ([2]; 0.1250 kg/ha): 2.0
herbicidal effect rating, ECHORC ([2]; 0.2500 kg/ha): 4.0
Preemergence herbicidal rating ABUTH (ABUTH (Velvetleaf); rate 0.0313 kg/ha): 0.0
Preemergence herbicidal rating ABUTH (ABUTH (Velvetleaf); rate 0.0625 kg/ha): 0.0
Preemergence herbicidal rating ABUTH (ABUTH (Velvetleaf); rate 0.1250 kg/ha): 2.0
Preemergence herbicidal rating ABUTH (ABUTH (Velvetleaf); rate 0.2500 kg/ha): 9.0
herbicidal effect rating, CYPIR (CYPIR (Rice Flatsedge); 0.1250 kg/ha): 0.0
herbicidal effect rating, CYPIR (CYPIR (Rice Flatsedge); 0.2500 kg/ha): 4.0
herbicidal effect rating, SAGPY ([3]; 0.1250 kg/ha): 0.0
herbicidal effect rating, SAGPY ([3]; 0.2500 kg/ha): 2.0

Cn1c(C(F)(F)F)cc(=O)n(-c2cc(N=C3SCC(=O)N3Cc3cccnc3)c(Cl)cc2F)c1=O [Compound 132, 3-{4-Chloro-2-fluoro-5-{[4-oxo-3-(3-pyridylmethyl)-2-thiazolidinylidene]amino}phenyl}-1-methyl-6-(trifluoromethyl)-2,4 (1H,3H)-pyrimidinedione]
Preemergence herbicidal rating TRZAWR ([1]; rate 0.0625 kg/ha): 0.0
Preemergence herbicidal rating TRZAWR ([1]; rate 0.1250 kg/ha): 0.0
Preemergence herbicidal rating TRZAWR ([1]; rate 0.2500 kg/ha): 1.0
herbicidal effect rating, ECHORC ([2]; 0.0313 kg/ha): 3.0
herbicidal effect rating, ECHORC ([2]; 0.0625 kg/ha): 4.0
herbicidal effect rating, ECHORC ([2]; 0.1250 kg/ha): 4.0
herbicidal effect rating, ECHORC ([2]; 0.2500 kg/ha): 6.0
Preemergence herbicidal rating ABUTH (ABUTH (Velvetleaf); rate 0.0625 kg/ha): 9.0
Preemergence herbicidal rating ABUTH (ABUTH (Velvetleaf); rate 0.1250 kg/ha): 9.0
Preemergence herbicidal rating ABUTH (ABUTH (Velvetleaf); rate 0.2500 kg/ha): 9.0
herbicidal effect rating, CYPIR (CYPIR (Rice Flatsedge); 0.0313 kg/ha): 0.0
herbicidal effect rating, CYPIR (CYPIR (Rice Flatsedge); 0.0625 kg/ha): 0.0
herbicidal effect rating, CYPIR (CYPIR (Rice Flatsedge); 0.1250 kg/ha): 0.0
herbicidal effect rating, CYPIR (CYPIR (Rice Flatsedge); 0.2500 kg/ha): 3.0
herbicidal effect rating, SAGPY ([3]; 0.0313 kg/ha): 0.0
herbicidal effect rating, SAGPY ([3]; 0.0625 kg/ha): 0.0
herbicidal effect rating, SAGPY ([3]; 0.1250 kg/ha): 0.0
herbicidal effect rating, SAGPY ([3]; 0.2500 kg/ha): 0.0

Cn1c(C(F)(F)F)cc(=O)n(-c2cc(N=C3SCC(=O)N3Cc3ccncc3)c(Cl)cc2F)c1=O [Compound 133, 3-{4-Chloro-2-fluoro-5-{[4-oxo-3-(4-pyridylmethyl)-2-thiazolidinylidene]amino}phenyl}-1-methyl-6-(trifluoromethyl)-2,4(1H,3H)-pyrimidinedione]
Preemergence herbicidal rating TRZAWR ([1]; rate 0.0313 kg/ha): 0.0
Preemergence herbicidal rating TRZAWR ([1]; rate 0.0625 kg/ha): 0.0
Preemergence herbicidal rating TRZAWR ([1]; rate 0.1250 kg/ha): 0.0
Preemergence herbicidal rating TRZAWR ([1]; rate 0.2500 kg/ha): 0.0
herbicidal effect rating, ECHORC ([2]; 0.0313 kg/ha): 6.0
herbicidal effect rating, ECHORC ([2]; 0.0625 kg/ha): 6.0
herbicidal effect rating, ECHORC ([2]; 0.1250 kg/ha): 9.0
herbicidal effect rating, ECHORC ([2]; 0.2500 kg/ha): 9.0
Preemergence herbicidal rating ABUTH (ABUTH (Velvetleaf); rate 0.0313 kg/ha): 0.0
Preemergence herbicidal rating ABUTH (ABUTH (Velvetleaf); rate 0.0625 kg/ha): 0.0
Preemergence herbicidal rating ABUTH (ABUTH (Velvetleaf); rate 0.1250 kg/ha): 1.0
Preemergence herbicidal rating ABUTH (ABUTH (Velvetleaf); rate 0.2500 kg/ha): 5.0
herbicidal effect rating, CYPIR (CYPIR (Rice Flatsedge); 0.0313 kg/ha): 0.0
herbicidal effect rating, CYPIR (CYPIR (Rice Flatsedge); 0.0625 kg/ha): 0.0
herbicidal effect rating, CYPIR (CYPIR (Rice Flatsedge); 0.1250 kg/ha): 2.0
herbicidal effect rating, CYPIR (CYPIR (Rice Flatsedge); 0.2500 kg/ha): 3.0
herbicidal effect rating, SAGPY ([3]; 0.0313 kg/ha): 0.0
herbicidal effect rating, SAGPY ([3]; 0.0625 kg/ha): 3.0
herbicidal effect rating, SAGPY ([3]; 0.1250 kg/ha): 3.0
herbicidal effect rating, SAGPY ([3]; 0.2500 kg/ha): 3.0

Cn1c(C(F)(F)F)cc(=O)n(-c2cc(N=C3SCC(=O)N3Cc3cccc(Cl)c3)c(Cl)cc2F)c1=O [Compound 136, 3-{4-Chloro-5-{[3-(m-chlorobenzyl)-4-oxo-2-thiazolidinylidene]amino}-2-fluorophenyl}-1-methyl-6-(trifluoromethyl)-2,4(1H,3H)-pyrimidinedione]
Preemergence herbicidal rating TRZAWR ([1]; rate 0.0156 kg/ha): 0.0
Preemergence herbicidal rating TRZAWR ([1]; rate 0.0313 kg/ha): 0.0
Preemergence herbicidal rating TRZAWR ([1]; rate 0.0625 kg/ha): 0.0
Preemergence herbicidal rating TRZAWR ([1]; rate 0.1250 kg/ha): 1.0
Preemergence herbicidal rating TRZAWR ([1]; rate 0.2500 kg/ha): 1.0
herbicidal effect rating, ECHORC ([2]; 0.0313 kg/ha): 7.0
herbicidal effect rating, ECHORC ([2]; 0.0625 kg/ha): 7.0
herbicidal effect rating, ECHORC ([2]; 0.1250 kg/ha): 7.0
herbicidal effect rating, ECHORC ([2]; 0.2500 kg/ha): 9.0
Preemergence herbicidal rating ABUTH (ABUTH (Velvetleaf); rate 0.0156 kg/ha): 4.0
Preemergence herbicidal rating ABUTH (ABUTH (Velvetleaf); rate 0.0313 kg/ha): 9.0
Preemergence herbicidal rating ABUTH (ABUTH (Velvetleaf); rate 0.0625 kg/ha): 9.0
Preemergence herbicidal rating ABUTH (ABUTH (Velvetleaf); rate 0.1250 kg/ha): 9.0
Preemergence herbicidal rating ABUTH (ABUTH (Velvetleaf); rate 0.2500 kg/ha): 9.0
herbicidal effect rating, CYPIR (CYPIR (Rice Flatsedge); 0.0313 kg/ha): 0.0
herbicidal effect rating, CYPIR (CYPIR (Rice Flatsedge); 0.0625 kg/ha): 5.0
herbicidal effect rating, CYPIR (CYPIR (Rice Flatsedge); 0.1250 kg/ha): 6.0
herbicidal effect rating, CYPIR (CYPIR (Rice Flatsedge); 0.2500 kg/ha): 7.0
herbicidal effect rating, SAGPY ([3]; 0.0313 kg/ha): 0.0
herbicidal effect rating, SAGPY ([3]; 0.0625 kg/ha): 0.0
herbicidal effect rating, SAGPY ([3]; 0.1250 kg/ha): 3.0
herbicidal effect rating, SAGPY ([3]; 0.2500 kg/ha): 3.0
